Among the data in BindingDB's records for doi:10.1093/toxsci/kfq269 (Amgen, 2010) are IC50 values, retold here.

This experiment has as its target Bile salt export pump (Homo sapiens, UniProt O95342). Kind of experiment: ChEBML_1661982. The method, then: Inhibition of human BSEP expressed in fall armyworm sf9 cell plasma membrane vesicles assessed as reduction in vesicle-associated [3H]-taurocholate transport preincubated for 10 mins prior to ATP addition measured after 15 mins in presence of [3H]-taurocholate by topcount based membrane vesicle transport assay

As to `O=C1OC2(c3ccc(O)cc3Oc3cc(O)ccc32)c2ccccc21`, the IC50 (usually the concentration needed to halve the response being measured) was greater than 135 µM.
